Reference: patent US20080269202A1, “Novel 2,3-benzodiazepine derivatives and their use as antipsychotic agents” (Teva Pharmaceutical Industries Ltd., priority 2007, published 2008)

How the values were obtained:
[1] = tested on: apomorphine-induced climbing; experiment: apomorphine-induced climbing test in mice; format: in vivo, CD1 mice; conditions: Mus musculus; mice, ip. 30 min before apomorphine 2 mg/kg s.c.; read-out: Climbing ED50 (mg/kg ip.)
Procedure: Anti-apomorphine effects were investigated in the climbing test in mice mediated through the mesolimbic and stereotypy test in rats mediated through the nigrostriatal system. Conventional antipsychotics antagonize both apomorphine-induced behaviours, while known atypical antipsychotics are weaker against apomorphine stereotypy.
The climbing test was carried out according to Protais et al. (Protais, P. et al. Psychopharmacologia, 1976, 50, 1.) Stereotyped behavior was induced in food deprived (for 16 hours) male CD1 mice weighing 20-25 g body by apomorphine HCl (SIGMA) in a s.c. dose of 2 mg/kg. Mice were placed individually into cylinders having 12 cm diameter and consisting of vertical bars of 2 mm diameter where apomorphine treated animals tended to adopt a vertical position in contrary to vehicle treated controls. Test substances were applied ip. 30 min before apomorphine.
10 and 20 min after apomorphine treatment the climbing behaviour was evaluated by scores of 0-2. 10 mice/group were used. The scores of the two readings were summed individually, meaned and compared to the control. The ED50 values were calculated by Litchfield-Wilcoxon's method (Litchfield Jr. J. T., Wilcoxon, F. J. Pharmacol. Exp. Ther. 1949, 96, 49,).

SMILES | melting point | ED50 [1]
COc1cc2c(cc1OC)C(c1ccc([N+](=O)[O-])cc1)=NN(c1nc(C)c(C)s1)C(C)C2 (stereo not drawn) [Example 8] | 192 to 193 °C | –
COc1cc2c(cc1OC)C(c1ccc([N+](=O)[O-])cc1)=NN(c1nc(C)c(C)s1)C(C)C2 (stereo not drawn) [Example 9] | 190 to 192 °C | –
COc1cc2c(cc1OC)C(c1cccc(Cl)c1)=NN(c1nccs1)C(C)C2 (stereo not drawn) [Example 10] | 125 to 126 °C | –
COc1cc2c(cc1OC)C(c1ccc([N+](=O)[O-])c(C)c1)=NN(c1nncs1)C(C)C2 (stereo not drawn) [Example 19] | 195 to 196 °C | –
COc1cc2c(cc1OC)C(c1ccc([N+](=O)[O-])c(C)c1)=NN(c1nncs1)C(C)C2 (stereo not drawn) [Example 20] | 192 to 195 °C | –
COc1cc2c(cc1OC)C(c1ccc([N+](=O)[O-])c(Cl)c1)=NN(c1nncs1)C(C)C2 (stereo not drawn) [Example 21] | 214 to 215 °C | –
COc1cc2c(cc1OC)C(c1ccc([N+](=O)[O-])c(Cl)c1)=NN(c1nncs1)C(C)C2 (stereo not drawn) [Example 22] | 203 to 206 °C | –
COc1cc2c(cc1OC)C(c1cccc(Cl)c1)=NN(c1nncs1)C(C)C2 (stereo not drawn) [Example 23] | 86 to 88 °C | –
COc1cc2c(cc1OC)C(c1ccc(Cl)cc1)=NN(c1nncs1)C(C)C2 (stereo not drawn) [Example 24] | 203 to 204 °C | –
COc1ccc(C2=NN(c3nncs3)C(C)Cc3cc(OC)c(OC)cc32)cc1OC (stereo not drawn) [Example 25] | 173 to 174 °C | –
CCOc1cc2c(cc1OCC)C(c1ccc([N+](=O)[O-])cc1)=NN(c1nncs1)C(C)C2 (stereo not drawn) [Example 26] | 172 to 174 °C | –
COc1cc2c(cc1OC)C(c1ccc([N+](=O)[O-])cc1)=NN(c1nnc(C)s1)C(C)C2 (stereo not drawn) [Example 27] | 228 to 229 °C | –
COc1cc2c(cc1OC)C(c1ccc([N+](=O)[O-])cc1)=NN(c1nnco1)C(C)C2 (stereo not drawn) [Example 29] | 225 to 229 °C | –
COc1cc2c(cc1OC)C(c1ccc([N+](=O)[O-])cc1)=NN(c1nnc(C)o1)C(C)C2 (stereo not drawn) [Example 30] | 177 to 178 °C | –
COc1cc2c(cc1OC)C(c1ccc([N+](=O)[O-])c(C)c1)=NN(C1=NOCS1)C(C)C2 (stereo not drawn) [Example 35] | 180 to 182 °C | –
COc1cc2c(cc1OC)C(c1ccc(F)cc1)=NN(C1=NOCS1)C(C)C2 (stereo not drawn) [Example 36] | 186 to 191 °C | –
COc1cc2c(cc1OC)C(c1ccccc1)=NN(C1=NOCS1)C(C)C2 (stereo not drawn) [Example 37] | 170 to 173 °C | –
COc1cc2c(cc1OC)C(c1ccc([N+](=O)[O-])cc1)=NN(c1ncon1)C(C)C2 (stereo not drawn) [Example 40] | 213 to 214 °C | –
COc1cc2c(cc1OC)C(c1ccc([N+](=O)[O-])cc1)=NN(c1ncon1)C(C)C2 (stereo not drawn) [Example 41] | 190 to 192 °C | –
COc1cc2c(cc1OC)C(c1ccc([N+](=O)[O-])c(Cl)c1)=NN(c1ncon1)C(C)C2 (stereo not drawn) [Example 45] | 227 to 230 °C | –
COc1cc2c(cc1OC)C(c1ccc([N+](=O)[O-])c(Cl)c1)=NN(c1ncon1)C(C)C2 (stereo not drawn) [Example 46] | 206 to 208 °C | –
COc1cc2c(cc1OC)C(c1ccc([N+](=O)[O-])c(C)c1)=NN(c1noc(C)n1)C(C)C2 (stereo not drawn) [Example 47] | 206 to 208 °C | –
COc1cc2c(cc1OC)C(c1ccc([N+](=O)[O-])cc1)=NN(c1noc(C)n1)C(C)C2 (stereo not drawn) [Example 48] | 197 to 199 °C | –
COc1cc2c(cc1OC)C(c1ccc(Cl)cc1)=NN(c1ncon1)C(C)C2 (stereo not drawn) [Example 49] | 210 to 212 °C | –
COc1cc2c(cc1OC)C(c1ccc(F)cc1)=NN(c1ncon1)C(C)C2 (stereo not drawn) [Example 50] | 217 to 220 °C | –
COc1cc2c(cc1OC)C(c1ccccc1)=NN(c1ncon1)C(C)C2 (stereo not drawn) [Example 51] | 215 to 216 °C | –
CCOc1cc2c(cc1OCC)C(c1ccc([N+](=O)[O-])cc1)=NN(c1ncon1)C(C)C2 (stereo not drawn) [Example 52] | 158 to 162 °C | –

SMILES | melting point | ED50 [1]
COc1ccc(C2=NN(c3ncon3)C(C)Cc3cc(OC)c(OC)cc32)cc1OC (stereo not drawn) [Example 53] | 188 to 189 °C | –
CNC(=O)N1N=C(c2cc(C)c([N+](=O)[O-])c(C)c2)c2cc(OC)c(OC)cc2CC1C (stereo not drawn) [Example 77] | 158 to 160 °C | –
CCNC(=O)N1N=C(c2ccc([N+](=O)[O-])c(C)c2)c2cc(OC)c(OC)cc2CC1C (stereo not drawn) [Example 80] | 149 to 150 °C | –
CCOc1cc2c(cc1OCC)C(c1ccc([N+](=O)[O-])cc1)=NN(C(=O)NC)C(C)C2 (stereo not drawn) [Example 93] | 188 to 189 °C | –
COc1cc2c(cc1OC)C(c1ccc(N)cc1)=NN(c1ncon1)[C@H](C)C2 [Example 103] | 239 to 242 °C | –
COc1cc2c(cc1OC)C(c1ccc(N)c(C)c1)=NN(c1ncon1)[C@@H](C)C2 [Example 105] | 136 to 138 °C | –
COc1cc2c(cc1OC)C(c1ccc(N)c(C)c1)=NN(c1noc(C)n1)[C@H](C)C2 [Example 106] | 105 to 108 °C | –
COc1cc2c(cc1OC)C(c1ccc(N)c(Cl)c1)=NN(c1ncon1)[C@H](C)C2 [Example 107] | 108 to 110 °C | –
COc1cc2c(cc1OC)C(c1ccc(N)cc1)=NN(c1nncs1)[C@H](C)C2 [Example 108] | 159 to 160 °C | –
COc1cc2c(cc1OC)C(c1ccc(N)cc1)=NN(c1nncs1)[C@@H](C)C2 [Example 109] | 160 to 162 °C | –
COc1cc2c(cc1OC)C(c1ccc(N)c(Cl)c1)=NN(c1nncs1)[C@H](C)C2 [Example 111] | 129 to 134 °C | –
COc1cc2c(cc1OC)C(c1ccc(N)cc1)=NN(c1nccs1)[C@H](C)C2 [Example 112] | 229 to 230 °C | 25 mg/kg
COc1cc2c(cc1OC)C(c1ccc(N)cc1)=NN(c1nc(C)c(C)s1)[C@H](C)C2 [Example 113] | 122 to 124 °C | –
COc1cc2c(cc1OC)C(c1ccc(N)c(C)c1)=NN(c1nccs1)[C@H](C)C2 [Example 114] | 116 to 118 °C | –
COc1cc2c(cc1OC)C(c1ccc(N)c(Cl)c1)=NN(c1nccs1)[C@H](C)C2 [Example 115] | 116 to 117 °C | –
COc1cc2c(cc1OC)C(c1ccc(N)c(Cl)c1)=NN(C1=NCCS1)[C@H](C)C2 [Example 116] | 232 to 234 °C | –
COc1cc2c(cc1OC)C(c1ccc(N)c(C)c1)=NN(C1=NOCS1)[C@H](C)C2 [Example 118] | 194 to 197 °C | –
COc1cc2c(cc1OC)C(c1ccc(N)cc1)=NN(C1=NOCS1)[C@@H](C)C2 [Example 119] | 134 to 135 °C | –
CONC(=O)N1N=C(c2ccc(N)cc2)c2cc(OC)c(OC)cc2C[C@H]1C [Example 135] | 143 to 145 °C | –
COc1cc2c(cc1OC)C(c1ccc(NC(C)=O)cc1)=NN(c1nccs1)C(C)C2 (stereo not drawn) [Example 181] | 130 to 134 °C | –
COc1cc2c(cc1OC)C(c1ccc(NC(C)=O)c(C)c1)=NN(c1nccs1)C(C)C2 (stereo not drawn) [Example 182] | 209 to 211 °C | –
COc1cc2c(cc1OC)C(c1ccc(NC(C)=O)cc1)=NN(c1nc(C)c(C)s1)[C@H](C)C2 [Example 184] | 238 to 239 °C | –
COc1cc2c(cc1OC)C(c1ccc(NC(C)=O)c(C)c1)=NN(c1nccs1)[C@H](C)C2 [Example 185] | 229 to 231 °C | –
COc1cc2c(cc1OC)C(c1ccc(NC(C)=O)c(Cl)c1)=NN(c1nccs1)[C@H](C)C2 [Example 186] | 213 to 215 °C | –
COc1cc2c(cc1OC)C(c1ccc(NC(C)=O)cc1)=NN(c1nncs1)C(C)C2 (stereo not drawn) [Example 187] | 150 to 151 °C | –
CNC(=O)Nc1ccc(C2=NN(c3nncs3)C(C)Cc3cc(OC)c(OC)cc32)cc1 (stereo not drawn) [Example 191] | 160 to 162 °C | –
